The structures appear in SMILES notation.

The test system of one experiment is primary RCEC. Briefly: HIF-1 activation and VEGF expression induced by LiCl in primary RCEC. The format is cell-based, bovine. The following applies: 50 mM LiCl, 24 hours. The protocol:
Blockade of the wnt pathway by DKK1 down-regulates VEGF and HIF-1 expression and reduces vascular leakage in the retina of diabetic rats. To activate the wnt pathway, primary RCEC were treated with 50 mM LiCl, a specific activator of the wnt pathway, in the presence or absence of 85 ng/ml DKK1, a specific inhibitor of the wnt pathway, or BSA for 24 hours. Hypoxia was used as a positive control for HIF-1 activation. The HIF-1 nuclear translocation, a key step in its activation, was measured by immunocytochemistry. Both LiCl and hypoxia increased nuclear levels of HIF-1α, indicating an increased nuclear translocation.
According to embodiments of experimental data, RCEC were exposed to normoxia (FIG. 17A), hypoxia (1% O2) (FIG. 17B), 50 mM LiCl with BSA (FIG. 17C), or 50 mM LiCl plus 85 ng/ml DKK1 (FIG. 17D) for 24 hours. The nuclear translocation of HIF-1α was determined by immunocytochemistry with an antibody against HIF-1α. […] In FIG. 17E, the total levels of VEGF and HIF-1α were determined by western blot analysis with an antibody against HIF-1α or VEGF.

Experiment [1] relates to bovine retinal capillary endothelial cells (BRCEC). The experiment can be described thus: β-catenin activation by high glucose in BRCEC. It counts as cell-based. The note with it: 30 mM glucose with 10 μM aminoguanidine, 24 h. The protocol:
To elucidate the mechanism for of the wnt pathway activation induced by high glucose, primary bovine retinal capillary endothelial cells (BRCEC) were treated with low glucose (5 mM glucose and 20 mM mannitol), high glucose (30 mM glucose), and high glucose together with a known anti-oxidant (30 mM glucose with 10 μM aminoguanidine) for 24 h. The nuclear levels of β-catenin were examined by immunocytochemistry using the antibody for β-catenin. […] The nuclear translocation of β-catenin induced by high glucose was blocked by aminoguanidine.
According to embodiments of experimental data, cultured BRCEC were exposed to 5 mM glucose plus 20 mM mannitol as control (FIG. 12A), 30 mM glucose (FIG. 12B), and 30 mM glucose plus 10 μM aminoguanidine (AG) (FIG. 12C) for 24 hours. […] In FIG. 12D, protein levels of β-catenin were determined using western blot analysis, and normalized by β-actin levels. Each lane of FIG. 12D represents an individual culture dish.

Consider `[Cl-].[Li+]` [LiCl, reference compound], for which, in the experiment with primary RCEC (immunocytochemistry), the “nuclear levels of HIF-1α” value is given as “increased”. Besides, in the experiment on primary RCEC (western blot), the “expression of HIF-1α” value is on record as “up-regulated” and the “expression of VEGF” value is given as “up-regulated”.

For the compound `N=C(N)NN` [aminoguanidine], the “nuclear translocation of β-catenin induced by high glucose” value in experiment [1] (immunocytochemistry) is recorded as “blocked”. In addition, in experiment [1] (western blot), the “total levels of β-catenin increased by high glucose” value is “blocked”.
